From patent publication US20250115565A1, “SOLID CRYSTALLINE FORMS OF HELICASE-PRIMASE INHIBITORS AND PROCESS OF PREPARATION THEREOF” (INNOVATIVE MOLECULES GMBH, priority 2022, published 2025)
Counter-ions that a name gives are not always drawn.

What was measured:
[1] = Relative bioavailability of crystalline and salt forms after single oral dose in male mice (Example 6); type: in vivo; conditions: male C57bl/6 mice, single oral dose adjusted to 10 mg/kg free IM-250, suspension in 0.5% HPMC in PBS, blood
Description: The relative bioavailability of crystalline and different salt forms versus suspended IM-250 (derived from a DMSO stock solution) after single dose oral administration in male C57bl/6 mice was examined. Animals (3 per group) had food withdrawn approximately 2 h before administration. The suspension was prepared from a DMSO stock solution, which was diluted 1:20 with 0.5% HPMC in PBS, ultrasonificated and orally administered with a gavage volume of 5 mL/kg. The suspensions of crystalline and different salt forms were prepared directly by adding powder to 0.5% HPMC in PBS, ultrasonificated and orally administered with a gavage volume of 5 mL/kg. Blood samples were taken at 0.5 h, 1 h, 2 h, 5 h, 12 h and 24 h via capillary microsampling and bioanalytics was measured via non-chiral LC-MS. The area-under-curve (AUC0-24 h) and relative bioavailability towards the IM-250 suspension was calculated. The doses for the salts were adjusted to 10 mg/kg free IM-250.

[2] = Chemical accelerated stability by HPLC after temperature and humidity stress (Example 7); type: physicochemical; conditions: for % of unchanged compound left: HPLC UV 285 nm, 3 assays
Description: (§1) The chemical and physical accelerated stability of the crystalline material was studied in order to anticipate potential stability issues upon storage or ageing. Crystals were stored for 1 month at 40° C./75% relative humidity (RH) and were also stored for 1 month at 60° C. (and % HR<10% RH). The chemical stability was assessed by HPLC by external standardization versus a freshly prepared (non-stressed) standard solution. For that purpose, six samples (exactly weighted) are stored for each condition: 3 for the 2-weeks stability and 3 for the 4-weeks stability. The physical stability was also assessed by XRPD, DSC analyses by comparing the XRPD and DSC profiles of stressed samples to those of a non-stressed sample. For that purpose, two more samples (one per time point) are stored in each condition (respectively 40° C./75% RH and 60° C.).

[3] = Physical accelerated stability by XRPD and DSC after temperature and humidity stress (Example 7); type: physicochemical
Description: XRPD analysis was performed on a Bruker D2 Phase diffractometer using a copper anti-cathode, a mono-crystalline silicone sample holder and a position sensitive detector (LynxExe). Powder sample was loaded on a flat mono-crystalline silicone sample holder in a way to avoid preferred orientation and to sensure planarity of the speciem surface. Instrument operation conditions were as follows: ambient temperature and atmosphere; X-ray generator voltage 30 kV and intensity 10 mA; X-ray source: target Copper; emission radiation Kα1=0.15406 nm, Kα2=0.15444 nm, ratio Kα2/Kα1=0.5, KB filter radiation Nickel; Slit: anti-divergence […], Sollers slit 2.5°; Goniometer: angular sector analyzed from 4° to 45° or 4° to 50° for 20, step size 0.07° for 20; Sample holder rotation speed: 30 rpm; Detection: exposition time per step size of goniometer 1 s.
DSC analysis was performed on a Q1000 TA Instruments analyzer. The sample to be analyzed was weighed in an aluminium capsule, which was then crimped and put into the calorimeter oven. Instrument operation conditions were as follows: heater ramp 10° C./min; final temperature 230° C. or 240° C.; carrier gas: nitrogen (Messer “qualité Azote 5.0”) with flow rate of 50 mL/min.
as §1

[4] = Relative bioavailability and brain exposure of d3-IM-250 HCl salt versus IM-250 HCl salt in male mice (Example 12); type: in vivo; conditions: mouse, male C57bl/6 mice, single oral dose 10 mg/kg; for Kp at 24 h: brain and whole blood, 24 h post dose, read-out: blood/brain ratio; for AUC(0-t): read-out: AUC0-24; for Cmax: suspension in 0.5% HPMC in PBS; for concentration at 24 h: brain 24 h post dose after PBS perfusion, read-out: brain level @ 24 h
Description: Animals (3 per group) had food withdrawn approximately 2 h before administration of 10 mg/kg of the test items. The suspensions were prepared directly by adding powder to 0.5% HPMC in PBS, ultrasonificated and orally administered with a gavage volume of 5 mL/kg. Blood samples (20 μL) were taken at 0.5 h, 1 h, 2 h, 5 h, 12 h and 24 h via capillary microsampling, collected from the tail vein into Li-heparin tubes. The samples were frozen on dry ice within 1-2 min of sampling and stored at −20° C. until LC-MS/MS analysis measured via non-chiral LC-MS. After 24 h post dose, animals were sacrificed and perfused with PBS until PBS was transparent and brain was collected and stored at −20° C. until processed for LC-MS analysis to determine the brain/blood exposure. The peak blood concentration (Cmax), elimination half-life (t1/2), area-under-curve (AUC0-24 h) and blood/brain ratio (as an easily obtainable surrogate parameter for nerve tissue exposure) was determined.

[5] = ICH long term and accelerated stability testing (Example 8); type: physicochemical
Description: The long term and accelerated chemical and physical stability was assessed at a Contract Manufacturing Organization. IM-250 HCl salt samples were primary packaged in double PE bags (50 μm, Semadeni, e.g. cat. #2439 with each tag tied with plastic twist). The secondary package was a HDPE-drum closed with a HDPE screw cap (CurTec). The storage conditions were 25±2° C./60±5% relative humidity and 40±2° C./75±5% relative humidity.

[6] = at least 4 weeks after storage at 40° C./75% RH and at 60° C.

Cc1nc(N(C)C(=O)Cc2ccc(-c3cc(F)ccc3F)cc2)sc1[S@@](C)(=N)=O [IM-250 Napadisylate]
AUC0-24 h [1]: 48241 ng·h/mL

Cc1nc(N(C)C(=O)Cc2ccc(-c3cc(F)ccc3F)cc2)sc1[S@@](C)(=N)=O [IM-250 Free base Form I, (S)-2-(2′,5′-Difluoro-[1,1′-biphenyl]-4-yl)-N-methyl-N-(4-methyl-5-(S-methylsulfon-imidoyl)thiazol-2-yl)acetamide]
% of unchanged compound left ([2]; 40° C./75% RH, 2 wk): 99.4% | % of unchanged compound left ([2]; 40° C./75% RH, 4 wk): 100.2% | % of unchanged compound left ([2]; 60° C., 2 wk): 99.6% | % of unchanged compound left ([2]; 60° C., 4 wk): 101.4% | chemical stability as a bulk powder [2, 6]: chemically stable | DSC Enthalpy transition ([3]; 40° C./75% RH, 2 wk): -77 J/g | DSC melting endotherm Temperature Onset ([3]; 40° C./75% RH, 2 wk): 163 °C | DSC melting endotherm Temperature Peak ([3]; 40° C./75% RH, 2 wk): 165 °C | DSC Enthalpy transition ([3]; 40° C./75% RH, 4 wk): -80 J/g | DSC melting endotherm Temperature Onset ([3]; 40° C./75% RH, 4 wk): 163 °C | DSC melting endotherm Temperature Peak ([3]; 40° C./75% RH, 4 wk): 165 °C | DSC Enthalpy transition ([3]; 60° C., 2 wk): -85 J/g | DSC melting endotherm Temperature Onset ([3]; 60° C., 2 wk): 163 °C | DSC melting endotherm Temperature Peak ([3]; 60° C., 2 wk): 164 °C | DSC Enthalpy transition ([3]; 60° C., 4 wk): -80 J/g | DSC melting endotherm Temperature Onset ([3]; 60° C., 4 wk): 163 °C | DSC melting endotherm Temperature Peak ([3]; 60° C., 4 wk): 165 °C | physical stability as a bulk powder [3, 6]: physically stable | DSC Enthalpy transition ([3]; no stress, initial analysis): -83 J/g | DSC melting endotherm Temperature Onset ([3]; no stress, initial analysis): 163 °C | DSC melting endotherm Temperature Peak ([3]; no stress, initial analysis): 164 °C | AUC0-24 h [1]: 7683 ng·h/mL

Cc1nc(N(C)C(=O)Cc2ccc(-c3cc(F)ccc3F)cc2)sc1[S@@](C)(=N)=O [suspended IM-250 from DMSO, (S)-2-(2′,5′-Difluoro-[1,1′-biphenyl]-4-yl)-N-methyl-N-(4-methyl-5-(S-methylsulfon-imidoyl)thiazol-2-yl)acetamide]
AUC0-24 h [1]: 66406 ng·h/mL

[2H]C([2H])([2H])c1nc(N(C)C(=O)Cc2ccc(-c3cc(F)ccc3F)cc2)sc1[S@@](C)(=N)=O [d3-IM-250 HCl salt]
Kp at 24 h [4]: 0.49 ± 0.1 | AUC(0-t) ([4]; whole blood, blood): 28600 ng·h/mL | Cmax ([4]; whole blood, blood): 2570 ng/mL | concentration at 24 h [4]: 568 ng/g

Cc1nc(N(C)C(=O)Cc2ccc(-c3cc(F)ccc3F)cc2)sc1[S@@](C)(=N)=O [IM-250 HCl salt]
Assay (HPLC, % w/w, as-is) ([5]; 6 months 25° C./60% RH): 97.9% | Chiral purity (HPLC area %) ([5]; 6 months 25° C./60% RH): 99.9% | Color and apperance ([5]; 6 months 25° C./60% RH): white to off- | Purity (HPLC area %) ([5]; 6 months 25° C./60% RH): 99.2% | Water content (% w/w) ([5]; 6 months 25° C./60% RH): 0.08% | Assay (HPLC, % w/w, as-is) ([5]; 6 months 40° C./75% RH): 98.6% | Chiral purity (HPLC area %) ([5]; 6 months 40° C./75% RH): 99.9% | Color and apperance ([5]; 6 months 40° C./75% RH): white to off- | Identity by XRPD ([5]; 6 months 40° C./75% RH): conforms to | Purity (HPLC area %) ([5]; 6 months 40° C./75% RH): 99.1% | Water content (% w/w) ([5]; 6 months 40° C./75% RH): 0.10% | Assay (HPLC, % w/w, as-is) ([5]; Initial): 98.5% | Chiral purity (HPLC area %) ([5]; Initial): 99.8% | Color and apperance ([5]; Initial): white to off- | Identity by XRPD ([5]; Initial): conforms to | Purity (HPLC area %) ([5]; Initial): 99.2% | Water content (% w/w) ([5]; Initial): 0.08% | physical stability as a bulk powder ([5]; at least 6 month after storage at 25° C. and at 40° C.): physically stable | Kp at 24 h [4]: 0.6 ± 0.2 | half-life ([4]; whole blood, blood): 5.7 h | AUC(0-t) ([4]; whole blood, blood): 14400 ng·h/mL | Cmax ([4]; whole blood, blood): 1210 ng/mL | concentration at 24 h [4]: 175 ng/g | AUC0-24 h [1]: 68289 ng·h/mL
